Experimental data: patent US11491460B2, “Porous cyclodextrin polymeric materials and methods of making and using same” (Cornell University, priority 2015, dated 2022)
Counter-ions that a name gives are not always drawn.

Tests used:
[1] = Micropollutant adsorption kinetics experiments on P-CDP; conditions: P-CDP 10 mg/L, MP 1 μg/L
[2] = Micropollutant adsorption kinetics experiments on CCAC; conditions: CCAC 10 mg/L, MP 1 μg/L
[3] = Batch adsorption kinetic studies of organic pollutants on P-CDP; conditions: estimated from the equilibrium efficiency value from the batch kinetic studies
[4] = Langmuir parameters of pollutant adsorption on P-CDP (Table 6); type: binding
Text: H. Thermodynamic studies of adsorption.
K (mol^−1) is the equilibrium constant.

[5] = system: fish populations; conditions: concentrations as low as; cited from earlier work
[6] = cited from earlier work; for Cs, solubility in water: experimental values
[7] = 23° C., estimated at t=30 minutes

Row | Structure (SMILES) | removal by P-CDP (in words) [1] | removal by CCAC (in words) [2] | further results
1 | O=C(O)COc1ccc(Cl)cc1Cl [2,4-D] | hardly removed | removed fairly well | kobs [1, 7]: 72.9 g/mg/min; kobs [2, 7]: 11.0 g/mg/min
2 | Oc1ccc2ccccc2c1 [2-NO, 2-naphthol] |  |  | K, equilibrium constant [3]: ~30,000^c Mol^−1
3 | CC(C)(c1ccc(O)cc1)c1ccc(O)cc1 [BPA, Bisphenol A] |  |  | BPA/β-CD molar ratio at qmax,e [4]: 0.9; K, equilibrium constant ([4]; Langmuir): 56,500 Mol^−1; qmax,e, maximum adsorption capacity of pollutant on 1 g P-CDP at equilibrium ([4]; Langmuir): 88.5 mg/g
4 | O=S(=O)(c1ccc(O)cc1)c1ccc(O)cc1 [BPS, bisphenol S] |  |  | K, equilibrium constant [3]: ~17,000^c Mol^−1
5 | Oc1ccc(Cl)cc1Cl [DCP, 2,4-dichlorophenol] |  |  | K, equilibrium constant [3]: ~17,000^c Mol^−1
6 | CC(C)(C)NCC(O)c1ccc(O)c(CO)c1 (stereo not shown) [albuterol] | removed well | not effectively removed | 
7 | CC(N)Cc1ccccc1 (stereo not shown) [amphetamine] | removed well | not effectively removed | 
8 | CC(C)NCC(O)COc1ccc(CC(=O)O)cc1 (stereo not shown) [atenolol acid] | removed well | not effectively removed | 
9 | CC(C)NCC(O)COc1ccc(CC(N)=O)cc1 (stereo not shown) [atenolol] | removed well | not effectively removed | 
10 | COc1ccc2c3c1O[C@H]1[C@@H](O)C=C[C@H]4[C@@H](C2)N(C)CC[C@@]341 [codeine] | removed well | not effectively removed | 
11 | C#C[C@]1(O)CC[C@H]2[C@@H]3CCc4cc(O)ccc4[C@H]3CC[C@@]21C [ethinyl estradiol] |  |  | concentration that has caused the collapse of fish populations [5]: 5 pg/mL; pKa [6]: 10.4; Cs, solubility in water [6]: 2 µg/mL
12 | COc1ccc2c3c1O[C@H]1C(=O)CC[C@H]4[C@@H](C2)N(C)CC[C@]314 [hydrocodone] | removed well | not effectively removed | 
13 | CCc1cccc(C)c1N(C(=O)CCl)C(C)COC (stereo not shown) [metolachlor] |  |  | K, equilibrium constant [3]: ~35,000^c Mol^−1
14 | CN1CC[C@]23c4c5ccc(O)c4O[C@H]2[C@@H](O)C=C[C@H]3[C@H]1C5 [morphine] | removed well | not effectively removed | 
15 | CC(C)NCC(O)COc1cccc2ccccc12 (stereo not shown) [propranolol hydrochloride] |  |  | K, equilibrium constant [3]: ~72,000^c Mol^−1
16 | CC(C)NCC(O)COc1cccc2ccccc12 (stereo not shown) [propranolol] |  |  | Cs, solubility in water [6]: 50 µg/mL
17 | COc1cccc(C2(O)CCCCC2CN(C)C)c1 (stereo not shown) [tramadol] | removed well | not effectively removed | 
18 | COc1ccc(C(CN(C)C)C2(O)CCCCC2)cc1 (stereo not shown) [venlafaxine] | removed well | not effectively removed | 
